Data taken from US10899699B2, “Vinylogous phenethylamines as neurotransmitter releasers” (RESEARCH TRIANGLE INSTITUTE, priority 2016, dated 2021).
Like-named read-outs stand apart in the source and are kept apart here.

Key:
5-HT2C = molecular target: T1, 5-HT2C (Homo sapiens, UniProt P28335); experiment: 5-HT2C calcium mobilization assay in HEK293 cells (agonist activity); format: cell-based; conditions: HEK293; for EC50: read-out: 5-HT2C EC50, (nM ± SEM); for Emax at 10 µM: read-out: 5-HT2C activity relative to the control 5-HT EMAX
T1 construct: expressed in transfected cells
T1 sequence (P28335 33-458): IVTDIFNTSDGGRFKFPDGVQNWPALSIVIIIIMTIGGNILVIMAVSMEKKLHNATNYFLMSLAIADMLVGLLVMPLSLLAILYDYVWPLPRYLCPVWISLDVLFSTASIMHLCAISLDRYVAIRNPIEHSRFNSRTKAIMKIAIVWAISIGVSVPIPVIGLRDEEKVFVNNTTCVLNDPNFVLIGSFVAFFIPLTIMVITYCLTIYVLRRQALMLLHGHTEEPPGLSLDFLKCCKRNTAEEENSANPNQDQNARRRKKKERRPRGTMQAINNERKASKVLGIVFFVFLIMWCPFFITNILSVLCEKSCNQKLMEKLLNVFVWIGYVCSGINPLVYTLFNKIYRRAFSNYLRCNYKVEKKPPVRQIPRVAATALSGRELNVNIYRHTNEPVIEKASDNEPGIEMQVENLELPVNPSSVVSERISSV
Procedure: (§1) BAT activity was measured using synaptosomes prepared from rat brain homogenates according to the protocol developed by Rothman and co-workers (Rothman, et al., Eur. J. Pharmacol. 2002, 447(1), 51). Compounds were first screened in uptake inhibition and release assays to determine the exact mode of drug action. Compounds active in both assays are releasers while compounds active only in the uptake inhibition assay are uptake inhibitors. Active compounds were then fully characterized by running 8-point concentration response curves in the assay corresponding to their mechanism of action. Substrate reversal experiments were conducted to validate substrate activity. The analogs were also tested for agonist activity at the serotonin-2 receptor subtypes (5-HT2A, 5-HT2B, 5-HT2C) using in vitro calcium mobilization assays in transfected HEK293 cells as previously described. These receptors are associated with the pharmacology of abused drugs, as 5-HT2A agonists are thought to be hallucinogenic while […] are associated with valvular heart disease and pulmonary hypertension; activity at these receptors would be considered off-target liabilities. On the other hand, agonists at 5-HT2C may be beneficial as potential pharmacotherapies for drug abuse and appetite suppression.
(§2) HEK293 cells stably expressing the human 5-HT2A receptor were used. The day before the assay, cells were plated into 96-well black-walled assay plates at 40,000 cells/well in DMEM-HG supplemented with 10% fetal bovine serum, 100 units of penicillin and streptomycin, and 15 mM HEPES. The cells were incubated overnight at 37° C., 5% CO2. Prior to the assay, Calcium 5 dye (Molecular Devices) was reconstituted according to the manufacturer instructions. The reconstituted dye was diluted 1:40 in pre-warmed (37° C.) assay buffer (1×HBSS, 20 mM HEPES, 2.5 mM probenecid, pH 7.4 at 37° C.). Growth medium was removed and the cells were gently washed with 100 μL of pre-warmed (37° C.) assay buffer. The cells were incubated for 45 minutes at 37° C., 5% CO2 in 200 μL of the diluted Calcium 5 dye. Serial dilutions of the test compounds were prepared in 1% DMSO/assay buffer, aliquoted into 96-well polypropylene plates, and warmed to 37° C. After the dye-loading incubation period, the cells were pre-treated with 25 μL of 9% DMSO/assay buffer and incubated for 15 min at 37° C. After the pre-treatment incubation period, the plate was read with a FlexStation® II (Molecular Devices). Calcium-mediated changes in fluorescence were monitored every 1.52 seconds over a 60 second time period, with the FlexStation® II adding 25 μL of test compound dilutions at the 19 second time point (excitation at 485 nm, detection at 525 nm). Peak kinetic reduction (SoftMax, Molecular Devices) relative fluorescent units (RFU) were plotted against compound concentration. Data were fit to the appropriate three-parameter logistic curve to generate EC50 values (GraphPad Prism 6.0, GraphPad Software, Inc., San Diego, Calif.). 5-HT2B and 5-HT2C calcium mobilization assays were run in the same manner with stable 5-HT2B and 5-HT2C HEK293 cells except that 35,000 cells/well were used instead of 40,000 cells/well.

[1] = molecular target: T2, Serotonin Transporter (SERT) (Rattus norvegicus, UniProt P31652); experiment: SERT release assay, rat brain synaptosomes; format: biochemical; conditions: for EC50: release of [3H]5-HT from rat brain synaptosomes, mean±SD (n=3)
T2 construct: synaptosomes were prepared from whole brain minus striatum and cerebellum for the NET and SERT assays; from tissue; host or cells: rat whole brain minus striatum and cerebellum, synaptosomes
T2 sequence (P31652 whole entry): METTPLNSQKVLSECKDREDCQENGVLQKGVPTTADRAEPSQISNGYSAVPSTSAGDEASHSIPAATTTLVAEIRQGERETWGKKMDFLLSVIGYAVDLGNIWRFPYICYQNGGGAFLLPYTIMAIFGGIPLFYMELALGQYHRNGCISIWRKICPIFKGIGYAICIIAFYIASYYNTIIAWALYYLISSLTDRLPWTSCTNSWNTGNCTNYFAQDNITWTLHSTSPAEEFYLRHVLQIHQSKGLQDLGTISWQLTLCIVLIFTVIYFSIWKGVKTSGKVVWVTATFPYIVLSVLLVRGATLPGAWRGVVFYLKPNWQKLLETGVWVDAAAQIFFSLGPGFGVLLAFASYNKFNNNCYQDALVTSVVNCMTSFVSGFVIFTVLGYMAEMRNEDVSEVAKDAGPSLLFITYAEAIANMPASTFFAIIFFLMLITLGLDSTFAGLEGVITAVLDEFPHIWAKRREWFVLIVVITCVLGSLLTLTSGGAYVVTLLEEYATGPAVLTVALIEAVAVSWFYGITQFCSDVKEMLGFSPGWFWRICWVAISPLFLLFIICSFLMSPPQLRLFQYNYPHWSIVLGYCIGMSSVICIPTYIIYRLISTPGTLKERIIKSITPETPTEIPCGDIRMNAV
Procedure: as §1, with “Compounds active in both assays are releasers while compounds active only in the uptake inhibition assay are uptake inhibitors. Active compounds were then fully characterized by running 8-point concentration response curves in the assay corresponding to their mechanism of action.” left out
(§3) All animal studies were conducted in facilities fully accredited by the Association for the Assessment and Accreditation of Laboratory Animal Care (AAALAC) and experiments were performed in accordance with the Institutional Care and Use Committee (IACUC) of the National Institute on Drug Abuse Intramural Research Program (NIDA IRP). Rats were euthanized by CO2 narcosis, and brains were processed to yield synaptosomes as previously described (Rothman, R B, et al., Eur. J. Pharmacol. 2002, 447(1), 51.). Synaptosomes were prepared from rat striatum for the DAT assays, whereas synaptosomes were prepared from whole brain minus striatum and cerebellum for the NET and SERT assays.
(§4) For release assays, 9 nM [^3H]1-methyl-4-phenylpyridinium ([^3H]MPP+) was used as the radiolabeled substrate for DAT and NET, while 5 nM [^3H]5-HT was used as a substrate for SERT. All buffers used in the release assay methods contained 1 μM reserpine to block vesicular uptake of substrates. The selectivity of release assays was optimized for a single transporter by including unlabeled blockers to prevent the uptake of [^3H]MPP+ or [^3H]5-HT by competing transporters. Synaptosomes were preloaded with radiolabeled substrate in Krebs-phosphate buffer for 1 h (steady state). Release assays were initiated by adding 850 μL of preloaded synaptosomes to 150 μL of test drug. Release was terminated by vacuum filtration and retained radioactivity was quantified as described for uptake inhibition. Concentration-response curves were generated to yield EC50 values.
(§5) Substrate reversal experiments were conducted to validate substrate activity. The releasing ability of test compounds was tested at an EC80 concentration in the absence and presence of an uptake inhibitor (250 nM […] for DAT, 166 nM desipramine for NET, 100 nM fluoxetine for SERT).

[2] = molecular target: T3, Dopamine Transporter (DAT) (Rattus norvegicus, UniProt P23977); experiment: DAT release assay, rat brain synaptosomes; format: biochemical; conditions: for EC50: release of [3H]MPP+ from rat striatum synaptosomes, mean±SD (n=3)
T3 construct: Synaptosomes were prepared from rat striatum for the DAT assays; from tissue; host or cells: rat striatum synaptosomes
T3 sequence (P23977 whole entry): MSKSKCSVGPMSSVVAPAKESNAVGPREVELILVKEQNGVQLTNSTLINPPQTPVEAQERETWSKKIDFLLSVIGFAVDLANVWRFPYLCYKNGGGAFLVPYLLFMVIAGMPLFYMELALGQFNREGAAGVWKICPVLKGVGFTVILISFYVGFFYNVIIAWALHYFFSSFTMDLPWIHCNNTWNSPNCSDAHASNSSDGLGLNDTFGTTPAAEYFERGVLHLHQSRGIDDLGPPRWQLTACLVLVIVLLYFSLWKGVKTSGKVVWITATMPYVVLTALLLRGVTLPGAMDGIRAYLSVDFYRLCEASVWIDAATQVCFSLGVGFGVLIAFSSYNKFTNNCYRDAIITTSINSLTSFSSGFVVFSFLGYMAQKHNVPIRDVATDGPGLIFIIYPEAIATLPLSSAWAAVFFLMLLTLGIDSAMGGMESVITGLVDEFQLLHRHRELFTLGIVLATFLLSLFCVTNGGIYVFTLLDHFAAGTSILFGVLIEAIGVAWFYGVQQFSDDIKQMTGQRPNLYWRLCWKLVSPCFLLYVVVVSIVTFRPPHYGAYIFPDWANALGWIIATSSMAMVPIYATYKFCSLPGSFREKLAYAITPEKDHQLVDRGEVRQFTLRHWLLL
Procedure: as §1, with “Compounds active in both assays are releasers while compounds active only in the uptake inhibition assay are uptake inhibitors. Active compounds were then fully characterized by running 8-point concentration response curves in the assay corresponding to their mechanism of action.” left out
as §3, §4, §5

[3] = molecular target: Norepinephrine Transporter (NET) (Rattus norvegicus, UniProt Q9WTR4); format: biochemical; conditions: read-out: EC50, (nM ± SD) NET; release of [3H]MPP+ from rat brain synaptosomes; mean±SD (n=3)
5-HT2B = molecular target: T4, 5-HT2B (Homo sapiens, UniProt P41595); experiment: 5-HT2B calcium mobilization assay in HEK293 cells (agonist activity); format: cell-based; conditions: calcium mobilization, agonist, HEK293; for EC50: read-out: 5-HT2B EC50, (nM ± SEM)
T4 construct: expressed in transfected cells
T4 sequence (P41595 whole entry): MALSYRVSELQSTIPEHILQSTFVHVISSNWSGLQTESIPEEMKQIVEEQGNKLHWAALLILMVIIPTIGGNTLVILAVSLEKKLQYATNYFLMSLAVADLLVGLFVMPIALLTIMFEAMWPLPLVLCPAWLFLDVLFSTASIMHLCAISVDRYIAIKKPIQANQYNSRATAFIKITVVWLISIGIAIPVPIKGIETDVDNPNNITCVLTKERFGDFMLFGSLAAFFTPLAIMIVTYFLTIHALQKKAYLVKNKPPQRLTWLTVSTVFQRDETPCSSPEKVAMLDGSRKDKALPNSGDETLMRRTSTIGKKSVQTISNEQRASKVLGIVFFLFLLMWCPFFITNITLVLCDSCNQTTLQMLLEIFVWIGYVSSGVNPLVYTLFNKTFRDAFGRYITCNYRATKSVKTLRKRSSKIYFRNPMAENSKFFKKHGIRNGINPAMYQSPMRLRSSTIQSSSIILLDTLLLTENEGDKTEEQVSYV
Procedure: as §1, §2

human 5-HT2A receptor = molecular target: T5, human 5-HT2A receptor (Homo sapiens, UniProt P28223); experiment: 5-HT2A calcium mobilization assay in HEK293 cells (agonist activity); format: cell-based; conditions: for Emax / EC50 / 5-HT2A EC50, (nM ± SEM): calcium mobilization; for Emax: efficacy
T5 construct: expressed in transfected cells
T5 sequence (P28223 whole entry): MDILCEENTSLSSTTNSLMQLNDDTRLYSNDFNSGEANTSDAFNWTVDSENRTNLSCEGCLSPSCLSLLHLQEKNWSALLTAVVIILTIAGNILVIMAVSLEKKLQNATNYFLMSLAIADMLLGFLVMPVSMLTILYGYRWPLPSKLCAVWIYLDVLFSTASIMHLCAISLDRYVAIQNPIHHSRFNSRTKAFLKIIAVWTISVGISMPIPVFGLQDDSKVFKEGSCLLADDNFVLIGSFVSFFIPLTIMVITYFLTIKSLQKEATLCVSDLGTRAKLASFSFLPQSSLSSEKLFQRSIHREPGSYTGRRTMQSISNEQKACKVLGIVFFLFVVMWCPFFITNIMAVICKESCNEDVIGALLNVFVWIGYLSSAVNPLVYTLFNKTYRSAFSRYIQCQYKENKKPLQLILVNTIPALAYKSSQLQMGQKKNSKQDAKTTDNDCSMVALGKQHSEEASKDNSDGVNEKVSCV
Procedure: as §1, §2

[4] = test system: Norepinephrine Transporter (NET); format: biochemical, rat
[5] = agonist, HEK293, read-out: 5-HT2A EC50, (nM ± SEM)

| SMILES | EC50 (5-HT2C; calcium mobilization, agonist) [nM] | EC50 [1] [nM] | EC50 [2] [nM] | EC50 [3] [nM] | EC50 (5-HT2B) [nM] | fold reduction in potency at 5-HT2A compared to 8 (human 5-HT2A receptor) [fold] | Emax (human 5-HT2A receptor; HEK293) [%] | EC50 (human 5-HT2A receptor; [5]) [nM] | Emax at 10 µM (5-HT2C) [%] | potency for releasing 5-HT relative to DA (SERT/DAT selectivity) [1] | potency for releasing DA relative to 5-HT [2] [fold] | selectivity for releasing NE relative to DA (NET compared to DAT) [4] [fold] | 5-HT2A EC50, (nM ± SEM) (human 5-HT2A receptor; agonist, HEK293) | 5-HT2C EC50, (nM ± SEM) (5-HT2C; calcium mobilization, agonist) | potency for 5-HT release compared to NE release [1] [fold] | potency at releasing DA compared to NE [2] | 5-HT2B EC50, (nM ± SEM) (5-HT2B) | selectivity for releasing 5-HT compared to DA, given as fold more potent at the DAT [2] [fold] | EC50 (human 5-HT2A receptor; read-out: 5-HT2A EC50) [nM] |
| --- | --- | --- | --- | --- | --- | --- | --- | --- | --- | --- | --- | --- | --- | --- | --- | --- | --- | --- | --- |
| C[C@@H](N)C/C=C/c1ccccc1 [R-6, (1R,3E)-1-Methyl-4-phenyl-but-3-enylamine] | > 10000 | 109 ± 29 | 540 | 279 ± 24 | > 10000 | – | – | – | – | – | – | – | – | – | – | – | – | – | – |
| CC(N)C/C=C/c1ccccc1 (racemic) [compound 6, (3E)-1-Methyl-4-phenyl-but-3-enylamine] | > 10000 | 54 ± 8 | 272 ± 44 | 239 ± 59 | > 10000 | 3 | ~80 | 5620 ± 1700 | – | – | – | – | – | – | – | – | – | – | – |
| CC(N)C/C=C\c1ccccc1 (racemic) [compound 8, (3Z)-1-Methyl-4-phenyl-but-3-enylamine] | > 10000 | 646 | 900 ± 100 | 621 ± 190 | > 10000 | – | 90 | 1860 | < 50 | 1.4 fold | – | – | – | – | – | – | – | – | – |
| C[C@H](N)C/C=C\c1ccccc1 [S-8, (1S,3Z)-1-Methyl-4-phenyl-but-3-enylamine] | – | 863 ± 86 | 304 | 170 | > 10000 | – | 102 | 1600 | < 50 | – | 2.2 | – | – | – | – | – | – | – | – |
| CC(N)/C=C/c1ccccc1 (centres unmarked) [compound 10, (2E)-1-Methyl-3-phenyl-prop-2-enylamine] | > 10000 | – | 666 | 308 ± 100 | > 10000 | – | – | > 10000 | – | – | – | 2.2 | inactive | – | – | – | – | – | – |
| C[C@H](N)C/C=C/c1ccccc1 [S-6, (1S,3E)-1-Methyl-4-phenyl-but-3-enylamine] | > 10000 | 40 | 206 | 138 | > 10000 | – | – | > 10000 | – | 5 fold | – | – | inactive | inactive | 3.5 | almost equal | inactive | – | – |
| C[C@@H](N)CC#Cc1ccccc1 [R-4, (1R)-1-Methyl-4-phenyl-but-3-ynylamine] | > 10000 | 288 | 660 ± 190 | 496 | > 10000 | – | – | – | – | – | – | – | – | – | – | – | – | 2.3 | – |
| CC(N)/C=C\c1ccccc1 (centres unmarked) [compound 11, (2Z)-1-Methyl-3-phenyl-prop-2-enylamine] | > 10000 | – | 1110 ± 150 | 301 ± 76 | > 10000 | – | – | > 10000 | – | – | – | 3.7 | inactive | – | – | – | – | – | – |
| C[C@H](N)CC#Cc1ccccc1 [S-4, (1S)-1-Methyl-4-phenyl-but-3-ynylamine] | > 10000 | 756 ± 79 | 443 | 784 ± 190 | > 10000 | 2.7 | ~80 | 4950 ± 1400 | – | essentially equipotent | – | – | – | – | – | – | – | – | – |
| CC(N)CC#Cc1ccccc1 (racemic) [compound 4, 1-Methyl-4-phenyl-but-3-ynylamine] | > 10000 | 384 ± 110 | 997 | 2980 | > 10000 | – | – | > 10000 | – | – | – | – | – | – | – | 3 fold | – | 2.6 | > 10000 |
